Article PMC6934184, “Selective DNA-PKcs inhibition extends the therapeutic index of localized radiotherapy and chemotherapy” (The Journal of Clinical Investigation, 2019)

Target: T1, DYRK1B (Homo sapiens, UniProt Q9Y463)
T1 construct: purchased Thermo Fisher Scientific (Life Technologies) SelectScreen
Assay: SelectScreen Z'LYTE
Format: biochemical
Procedure, shortened: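 SelectScreen broad panel; activity (Z'LYTE, Adapta) plus binding formats. ATP: Km app for CSF1R Z'LYTE; 10 for CAMK1 Adapta. Readout = % per kinase.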

T1 sequence (Q9Y463 whole entry): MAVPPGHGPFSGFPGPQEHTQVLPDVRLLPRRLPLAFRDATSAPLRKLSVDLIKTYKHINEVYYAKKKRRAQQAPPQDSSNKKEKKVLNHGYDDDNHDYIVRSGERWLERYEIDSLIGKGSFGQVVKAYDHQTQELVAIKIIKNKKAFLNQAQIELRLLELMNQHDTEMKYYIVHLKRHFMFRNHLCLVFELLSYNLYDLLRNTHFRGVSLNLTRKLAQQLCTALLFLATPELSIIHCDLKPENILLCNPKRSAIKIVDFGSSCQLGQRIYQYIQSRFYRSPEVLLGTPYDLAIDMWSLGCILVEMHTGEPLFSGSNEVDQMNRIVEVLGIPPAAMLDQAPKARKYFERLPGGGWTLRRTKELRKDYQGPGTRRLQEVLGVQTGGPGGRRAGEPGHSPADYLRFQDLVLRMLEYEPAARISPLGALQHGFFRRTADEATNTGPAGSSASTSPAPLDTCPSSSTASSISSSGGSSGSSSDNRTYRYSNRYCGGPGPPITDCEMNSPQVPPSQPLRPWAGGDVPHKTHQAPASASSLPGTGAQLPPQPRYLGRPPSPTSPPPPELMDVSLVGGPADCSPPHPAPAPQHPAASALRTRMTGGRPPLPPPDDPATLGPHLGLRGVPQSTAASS

Compound `CN(C(=O)CN1CCOCC1)c1ccc2sc3c(-c4cccc5c(=O)cc(N6CC7CCC(C6)O7)oc45)cccc3c2c1` [NU5455] has an inhibition at 1 µM of -1.8%.
